Test results from US9879325B2, “Method for predicting the responsiveness a patient to a treatment with an anti-CD20 antibody” (ASSISTANCE PUBLIQUE—HÔPITAUX DE PARIS, priority 2014, dated 2018).

How the values were obtained:
[1] = tested on: ms4a1 (CD20 encoding gene); test: ms4a1 expression in lymphoma bearing mice; set-up: species or system mouse; conditions: in vivo inhibition of GAPDH
Method: To get deeper into the mechanism of CD20 expression, we observed that upon 24 hours of hypoxia, primary Eμ-Myc cells are showing a 2-fold increase in mRNA level of ms4a1 when compared to normoxia. […] We then confirmed the effects of hypoxia on CD20 cell surface expression using the human Burkitt's lymphoma cell line Raji.
(§1) Total RNA was extracted from cells using the RNA extraction kit (Qiagen) according to the manufacturer's instructions. Total RNA (2 μg) was added to 20 μl reverse transcription-PCR using the Omniscript kit (Qiagen). The relative mRNA expression level of gapdh, hif-1α, ca9, vegf-α, ldh-a (mouse and human) were obtained by real-time quantification PCR (qPCR), using the TaqMan PCR Master Mix (Eurogentec) and TaqMan assay primer set (Applied Biosystems, Foster City, Calif.) on the 7500 Fast and the Step One (Applied Biosystems) according to the manufacturer's instructions (sequences provided upon request). For in vitro experiment, all samples were normalized to rplp0. All mRNA samples from human tumor tissues were normalized by ppia (cyclophilin-a).

NF-κB [2] = test: Electrophoretic mobility shift assay (EMSA) of NF-κB binding in Raji cells; format: cell-based, human; conditions: hypoxia 1% O2 24 hours, 0.2 μg/ml
Method: Total cell extracts from Raji cells treated or not with 0.2 μg/ml of KA and exposed to normoxia or hypoxia 1% O2 for 24 hours were prepared as previously described (Bottero et al., 2003). For mobility shift assay, a NF-κB probe consisting of a synthetic double stranded oligonucleotide containing the KB binding site of the Igκ promoter was used. The end-labeled probe (T4 kinase) was incubated with extracts samples for 20 minutes at 30° C. Complexes were separated by electrophoresis on a 5% non-denaturating polyacrylamide gel in 0.5×TBE. Dried gels were subjected to autoradiography.

hif-1α mRNA = hif-1α mRNA in vivo (qPCR); set-up: species or system mouse; conditions: 5 mg/kg
Method: Consequently, we investigated GAPDH-TRAF2 binding in Eμ-Myc and HeLa cells and evidenced that GAPDH could be co-immunprecipitated with TRAF2 when cells are cultured in hypoxia. […] We further tested this interaction in vivo. For that matter Eμ-Myc bearing mice were treated once with PBS or with the covalent inhibitor koningic acid (i.p) and GAPDH/TRAF2 interaction was investigated by co-immunoprecipation in tissues, 24 hours after treatment.
as §1

GAPDH-TRAF2 interaction = test: GAPDH-TRAF2 co-immunoprecipitation in cells cultured in hypoxia; format: cell-based; conditions: Eμ-Myc and HeLa cells
Method: (§2) Protein G Sepharose 4B beads (Invitrogen, CA, USA) were first incubated with rabbit anti-TRAF2 or mouse anti-GAPDH antibody or IgG control (Santacruz, Calif., USA) for 4 hours at 4° C. Beads were then incubated overnight with 1 mg of precleared protein lysed in 20 mM Tris-HCl, pH 7.4, 137 mM NaCl, 1 mM EGTA, 10% glycerol, 1% Triton X-100, 1.5 mM MgCl2, 1 μg/μl PMSF, protease and phosphatase inhibitor cocktail (Thermo Scientific). Samples were then washed five times, boiled in Laemmli buffer and analyzed by immunoblotting with the indicated antibodies

NF-κB [3] = test: NF-κB activity luciferase assay; format: cell-based
Method: HeLa cells stably expressing GAPDH-V5 or GAPDH double mutant (DM-V5) control (pMIG) were transiently co-transfected by the classical calcium phosphate method with 0.5 μg of a vector encoding cFP and 2 μg of a luciferase reporter gene controlled by a minimal tk promoter ans sex reiterated KB sites (icBx6 tk luc). Forty-eight hours after transfection, cells were exposed to either normoxia or hypoxia 1% O2 for 24 hours before harvesting and analyzing as previously described (Bottero et al., 2003).

HIF-1 = HIF-1 activity luciferase assay; format: cell-based; conditions: non-toxic doses; hypoxia
Method: HIF-1 activity. HeLa cells stably expressing the p3HRE-Dptk-LUC vector, which contain three copies of the hypoxia-responsive element (HRE) from the erythropoietin gene (Dayan et al., 2006), were transiently transfected (calcium phosphate) with control vector (pMIG or empty pSUPER vector) or vectors (2 μg) to either overexpress or to silence GAPDH. The following day, transfected cells were exposed to normoxia or hypoxia 1% O2 for 24 hours before cell lysis in a reporter lysis buffer (Promega). It is worth noting that for determination of HIF-1 activity in hypoxia, cells were directly lysed in the hypoxic chamber). The luciferase assay was performed as previously described (Jacquin et al., 2013).

GAPDH/TRAF2 interaction = molecular target: T1, GAPDH/TRAF2 interaction (Mus musculus, UniProt P16858); test: GAPDH/TRAF2 co-immunoprecipitation in tissues of Eμ-Myc bearing mice; format: in vivo; conditions: 24 hours after treatment
T1 construct: from tissue; lymph node tumors are collected elsewhere in the text
T1 sequence (P16858 whole entry): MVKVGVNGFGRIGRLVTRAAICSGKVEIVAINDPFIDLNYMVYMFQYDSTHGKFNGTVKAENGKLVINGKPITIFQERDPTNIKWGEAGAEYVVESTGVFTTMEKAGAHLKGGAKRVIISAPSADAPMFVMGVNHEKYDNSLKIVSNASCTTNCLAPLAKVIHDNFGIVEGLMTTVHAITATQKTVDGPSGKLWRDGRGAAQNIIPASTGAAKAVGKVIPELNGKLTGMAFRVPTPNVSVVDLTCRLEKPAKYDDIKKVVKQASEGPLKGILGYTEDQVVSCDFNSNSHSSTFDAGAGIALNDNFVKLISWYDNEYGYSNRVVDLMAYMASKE
Method: as §2, with “Consequently, we investigated GAPDH-TRAF2 binding in Eμ-Myc and HeLa cells and evidenced that GAPDH could be co-immunprecipitated with TRAF2 when cells are cultured in hypoxia. […] We further tested this interaction in vivo. For that matter Eμ-Myc bearing mice were treated once with PBS or with the covalent inhibitor koningic acid (i.p) and GAPDH/TRAF2 interaction was investigated by co-immunoprecipation in tissues, 24 hours after treatment. […] Protein” for “Protein”

[4] = tested on: CD20 cell surface expression; test: CD20 cell surface expression by flow cytometry in Raji cells; format: cell-based, human; conditions: hypoxia 1% O2 48 h, non-toxic doses (0.1 μg/ml)
Method: Cells (0.5·10^6) cells (in triplicate) were washed 1×PBS and incubated at 4° C. with the monoclonal anti-CD20 (Affymetrix eBioscience) at a concentration of 2.5 μg/ml for 45 minutes. IgG isotypic controls were included. Cells were then washed 2×PBS and incubated at 4° C. for 30 minutes in the dark with a anti-mouse Alexa 488 (1 μg/ml). Then cells were washed twice in PBS and resuspend in 100 μl of PBS containing 0.5 μg/ml of DAPI (4′,6-diamidino-2-phenylindole). Ten thousand events were analyzed immediately by flow cytometry using a MACSQuant Analyzer (Miltenyi Biotec). The mean fluorescence intensity (MFI) obtained for lived (DAPI negative) CD20 positive cells was reported. Histograms represent the average of three independent experiments.
A total of 1×10^6 cells were washed in PBS and incubated for 45 minutes at 4° C. with the monoclonal anti-CD20 antibody (2.5 μg/ml) (Affymetrix eBioscience). The cells were then washed in PBS and incubated at 4° C. for 30 minutes with an anti-mouse Alexa Fluor 488 (1 μg/ml). […] After washing twice in the saponine-containing buffer, the cells are resuspended in PBS/2% FCS and analyzed by flow cytometry. Immediately afterwards, 10,000 events were analyzed by flow cytometry using a MACSQuant Analyzer (Miltenyi Biotec). The mean fluorescence intensity (MFI) obtained for CD20-low, CD20-high, GAPDH-low, GAPDH-high cells, was reported.

HIF-1α = HIF-1α protein expression (Western blot); format: cell-based; conditions: non-toxic doses; hypoxia
Method: Briefly, after exposure to normoxia or hypoxia, cells were washed and lysed in laemmli buffer. Cells exposed to hypoxia were lysed in the hypoxic chamber. Proteins (40 μg) were separated on 8% to 12% SDS polyacrilamide gels and transferred onto polyvinylidene difluoride membranes (Millipore). Membranes were then blotted with antibody corresponding to the indicated proteins. Immunoreactive bands were detected with a horseradish peroxidase (HRP) anti-mouse (Dako) or anti-rabbit (Cell Signaling) by enhanced chemiluminescence (Pierce). When indicated, Western blot quantification was made using ImageJ software.

GAPDH = test: Measurement of GAPDH activity; format: biochemical; conditions: non-toxic doses
Method: Cells were lysed in a buffer containing 10 mmol/L HEPES (pH 7.4), 150 mmol/L NaCl, 5 mmol/L EDTA, 1% NP40, 10 μg/mL aprotinin, 1 mmol/L phenylmethylsulfonyl fluoride and 10 mmol/L leupeptin (buffer A). Lysates were standardized for protein content and incubated with 0.25 mmol/L NAD, 3.3 mmol/L DTT, 13 mmol/L Na4P2O7 (pH 8.5), 26 mmol/L sodium arsenate, and 25 mmol/L D-glyceraldehyde-3-phosphate in a black 96-well plate (Cellstar). GAPDH activity was measured on a fluoroscan at 445 nm as the increase in fluorescence related to NADH accumulation. Activity is expressed as the change in absorbance per milligram of protein.

DLBCL patients = test: Overall survival of DLBCL patients by gapdh mRNA level; format: in vivo, human
Description: Thirteen patients who underwent biopsy for DLBCL between May 2007 and May 2011 at the Saint-Louis Hospital (Department of Onco-hematology, Hopital Saint-Louis, Paris, France) were selected. The patients received the necessary information concerning the study and consent was obtained. Morphologic classification of the tumors was assigned according to the World Health Organization (WHO) criteria (Campo et al., 2011). The tumors extensions were staged according to the Ann Arbor stage, and all patients were scored by IPIaa (project, 1993). Follow-up data for all the patients were collected regularly. Among these patients, 8 relapsed (61.5%) and 6 (46%) died.
Data are expressed as mean±standard deviation (SD). Differences in the calculated mean between each group were analyzed using Fisher test (quantitative variable). Survival functions were estimated by the Kaplan-Meier method and compared by the log-rank test. A P value of 0.05 or less was considered to indicate statistical significance. Kaplan-Meier survival curves and box plot representations were performed using “R” software.
[…] was measured from the date of diagnosis to that of death from any cause or to the stopping date. When the latter date was not reached, the data were censored at the date of the last follow-up evaluation. […]

Compound	ms4a1 expression [1]	NF-κB binding to its consensus sequence (NF-κB [2])	hif-1α mRNA in vivo (hif-1α mRNA)	GAPDH-TRAF2 interaction (GAPDH-TRAF2 interaction)	NF-κB transcriptional activity (NF-κB [3]; hypoxic HeLa cells)	NF-κB activity (NF-κB [3]; specific and partial inhibition of GAPDH in hypoxia)	HIF-1 activity (HIF-1)	GAPDH/TRAF2 interaction in vivo (GAPDH/TRAF2 interaction; 0.5 mg/kg i.p. once)	GAPDH/TRAF2 interaction in vivo (GAPDH/TRAF2 interaction; 5 mg/kg i.p. once)	hypoxic-dependent increase in CD20 cell surface expression [4]	HIF-1α expression (HIF-1α)	reduction of GAPDH activity (GAPDH)	patients still alive 350 days following the diagnosis (DLBCL patients; "low" gapdh group) [%]	patients still alive 350 days following the diagnosis (DLBCL patients; DLBCL with "high" levels of gapdh mRNA) [%]
CC(C)[C@H]1CC[C@@]2(CO2)[C@H]2C(=O)OCC(C(=O)O)=C[C@H]12 [Koningic acid]	reduction in ms4a1 expression	reduced its binding in hypoxia	reduced hif-1α mRNA	loss of GAPDH-TRAF2 interaction	prevented NF-κB transcriptional activity	decreases NF-κB activity	decrease in HIF-1 activity	inactive dose	reduced the interaction	prevented this hypoxic-dependent increase in CD20 expression	decrease	50-60%		
Rituximab-based chemotherapy: anti-CD20 monoclonal antibody rituximab given with chemotherapy to DLBCL patients upon diagnosis													33	100
